Assay results reported in patent US5981573A, “N,N-disubstituted amic acid derivatives” (Banyu Pharmaceutical Co., Ltd., priority 1996, dated 1999).

Experiments:
[1] = test system: farnesyl-modification of Ras protein in NIH3T3 cells transformed by activated ras gene; assay: Inhibitory activities against farnesyl-modification of Ras protein in NIH3T3 cells transformed by activated ras gene; type: cell-based; conditions: Mus musculus, 24 hours, read-out: 50% inhibitory concentrations (IC50) against farnesyl-modification of Ras protein
Description: PHARMACOLOGICAL TEST EXAMPLE 2 (Inhibitory activities against farnesyl-modification of Ras protein)
Using the compounds of the present invention, inhibitory activities against farnesyl-modification of Ras protein in NIH3T3 cells transformed by activated ras gene, were measured.
The NIH3T3 cells transformed by activated ras gene, were seeded on a culture plate and cultured for 3 days. Then, a compound of the present invention in a predetermined concentration was added to the culture. In accordance with the method disclosed in J. Biol. Chem., vol. 268, p. 18415 (1993), the cells were cultured for 24 hours and then taken off from the plate, and the cells were dissolved. After centrifugal separation for 5 minutes under 12000 g, the supernatant was used as a cell extract. The cell extract was subjected to SDS polyacrylamide gel electrophoresis to separate farnesyl-modified Ras protein and non-farnesyl-modified Ras protein. The protein on the gel was transferred onto a nitrocellulose membrane, and an anti-Ras protein antibody was reacted as a probe (primary antibody reaction). An anti-primary antibody, a peroxidase inclusion (secondary antibody), was reacted, and then Ras protein was detected by a chemical fluorescence enhancing kit. The proportion of non-farnesyl-modified Ras protein was quantified by a densitometer and taken as the inhibitory activity. […]

[2] = target: T1, protein-farnesyl transferase (PFT) (Rattus norvegicus, UniProt Q02293+Q04631); assay: Inhibitory activities against protein-farnesyl transferase (PFT); type: biochemical; conditions: PFT derived from rat brain; prenyl acceptor H-ras protein or biotin-added Lys-Thr-Ser-Cys-Val-Ile-Met; 37° C., 20 minutes; read-out: 50% inhibitory concentrations (IC50) against PFT activities
T1 construct: PFT derived from rat brain (Q-sepharose fraction); from tissue; host or cells: rat brain (soluble fraction, 30-50% ammonium sulfate cut, Q-Sepharose fraction)
Description: Pharmacological Test 1 (Inhibitory activities against protein-farnesyl transferase)
PFT was separated in such a manner that a soluble fraction of rat s brain was fractionated by means of 30%-50% saturated ammonium sulfate, further dialyzed and then subjected to column chromatography by Q-sepharose™ (manufactured by Pharmacia) (Reiss et al., Cell, vol. 62, pp. 81-88 (1990)).
(2) Method for measuring PFT activities
Measurement of PFT activities was conducted by using, as a prenyl acceptor, H-ras protein or a peptide corresponding to the C-terminal 7 amino acid residues of K-rasB protein which had biotin added to the N-terminal (biotin-added Lys-Thr-Ser-Cys-Val-Ile-Met) and, as a prenyl donor, [^3 H]-labeled farnesyl pyrophosphate (FPP) (Reiss et al., Methods: A Companion to Methods in Enzymology, vol. 1, No. 3, pp. 241-245 (1990)). […]
The enzymatic reaction product containing H-ras protein as the prenyl acceptor, was analyzed by SDS-PAGE (sodium dodecyl sulfate/polyacrylamide gel electrophoresis). […]
The measurement of PFT activities using H-ras protein as the prenyl receptor, was also analyzed by a rapid separate method. […]

| SMILES | IC50 [1] [nM] | IC50 [2] [nM] |
| --- | --- | --- |
| CCOC(=O)C(CC(=O)O)=C(O)C(=O)N(CC#Cc1ccccc1)[C@H](C)[C@H](Cc1ccc(C(=O)Nc2ccccc2)o1)c1ccc2c(c1)OCO2 (relative stereo) [Example 17, 3-(ethoxycarbonyl)-4-hydroxy-4-[N [(1RS,2RS)-1-methyl-2-(3,4-methylenedioxyphenyl)-3-{5-(phenylcarbamoyl)-2-furyl}propyl]-N-(3-phenyl-2-propynyl)carbamoyl]-3-butenoic acid] | 4.3 | 1.7 |
| C[C@H]([C@H](Cc1ccc(C(=O)Nc2ccccc2)o1)c1ccc2c(c1)OCO2)N(C/C=C/c1ccccc1)C(=O)C(O)=C(CC(=O)O)C(=O)OC(C)(C)C [Example 1, 3-(tert-butoxycarbonyl)-4-hydroxy-4-[N-[(1R,2R)-1-methyl-2-(3,4-methylenedioxyphenyl)-3-{5-(phenylcarbamoyl)-2-furyl}propyl]-N-{(E)-3-phenyl-2-propenyl}carbamoyl]-3-butenoic acid] | 1.3 | 0.74 |
